Patent US7563592B2, “Alizarin-based chromogenic substrates, their uses and composition containing same” (Biomerieux, S.A., priority 1999, dated 2009)

Legend:
Shigella boydii = assay: β-galactosidase detection on semi-solid medium, clinical and environmental strains (Example 2); assay type: cell-based; settings: 50 mg/l + iron citrate 500 mg/l; 18 hours; 1 strain tested
[1] = test system: β-galactosidase (EC 3.2.1.23 Sigma); assay: Effect of pH on β-D-galactosidase detection, substrate 0.05 g/l in water (Example 4); assay type: biochemical
Protocol: To each of eighteen tubes containing 5 ml of osmotically purified water, the following were added Alizarin-2-β-D-galactoside (0.05 g/l) and 5 μl of β-galactosidase (EC 3.2.1.23 Sigma). Ammoniacal iron citrate (0.05 g/l) was added to half of these tubes. […] Finally, the pH of these tubes was adjusted to different values (2-3-4-5-6-7-8-9-10) at 24° C.

Morganella morganii = assay: β-galactosidase detection on semi-solid medium, clinical and environmental strains (Example 2); assay type: cell-based; settings: 50 mg/l + iron citrate 500 mg/l; 18 hours; 12 strains tested
Hafnia alvei = assay: as above; assay type: cell-based; settings: 50 mg/l + iron citrate 500 mg/l; 18 hours; 10 strains tested
Citrobacter koseri 059 = assay: Comparison of glucoside substrates in semi-solid Columbia medium (Example 7); assay type: cell-based; settings: 0.05 g/l + iron citrate 0.05 g/l
[2] = test system: Klebsiella pneumoniae 023; assay: as above; assay type: cell-based; settings: 0.05 g/l + iron citrate 0.05 g/l
[3] = test system: Listeria monocytogenes 081; assay: Effect of metal salts on the color of the marker part, substrate 50 mg/l in Columbia medium (Example 3); assay type: cell-based
Protocol: (§1) To the Columbia-base medium (46.37 g/l) supplemented with Alizarin-2-β-D-glucoside (50 mg/l), were added either Manganese chloride, Ammoniacal iron citrate, Tin chloride, or Aluminum sulfate, all at a concentration of 50 mg/l. A control medium with no metal salts was tested in parallel. After autoclaving, these various media were all used to prepare Petri dishes (20 ml per plate). […] It should be pointed out that intensity readings are in arbitrary units. The only purpose of giving these values is to make it possible to compare one strain with another in this respect. The same is true for the examples which follow. Similarly, the strains tested were taken from the Applicant's collection and the number given represents an internal reference specific to this collection. The same internal numbering system is also used in some of the examples given later on.

Listeria innocua 036 = assay: as above; assay type: cell-based
Protocol: as §1

Listeria grayi 078 = assay: as above; assay type: cell-based
Protocol: as §1

Listeria seeligeri 011 = assay: as above; assay type: cell-based
Protocol: as §1

Listeria ivanovii 018 = assay: β-glucosidase detection in API strip wells (Example 6); settings: 0.12 g/l + iron citrate 0.05 g/l
[4] = Manganese chloride 50 mg/l, 24 H
[5] = Manganese chloride 50 mg/l, 48 H

With `O=C1c2ccccc2C(=O)c2c1ccc(O[C@@H]1O[C@H](CO)[C@H](O)[C@H](O)[C@H]1O)c2O` [Alizarin-2-β-D-galactoside] the “percentage of positive strains” value (Shigella boydii) was 0%, the “color of the tubes after incubation, before pH adjustment” value ([1]; 4 hours at 37° C., no Ammoniacal iron citrate) was “light pink” and the “pink coloration of the tubes after incubation, before pH adjustment” value ([1]; 4 hours at 37° C., with Ammoniacal iron citrate 0.05 g/l, versus tubes without) was “more intense”. The Color ([1]; pH 2, no iron) was “Yellow”, the Color ([1]; pH 2, with iron (Ammoniacal iron citrate 0.05 g/l)) was “Yellow” and the Color ([1]; pH 3, no iron) was “Yellow”. For the same molecule, the Color ([1]; pH 3, with iron (Ammoniacal iron citrate 0.05 g/l)) was “Yellow”, the Color ([1]; pH 4, no iron) was “Yellow” and the Color ([1]; pH 4, with iron (Ammoniacal iron citrate 0.05 g/l)) was “Yellow”. For the same molecule, the Color ([1]; pH 5, no iron) was “Yellow-Orange”, the Color ([1]; pH 5, with iron (Ammoniacal iron citrate 0.05 g/l)) was “Yellow-Pink” and the Color ([1]; pH 6, no iron) was “Pink-Orange”. The Color ([1]; pH 6, with iron (Ammoniacal iron citrate 0.05 g/l)) was “Pink”, the Color ([1]; pH 7, no iron) was “Pink-Orange” and the Color ([1]; pH 7, with iron (Ammoniacal iron citrate 0.05 g/l)) was “Pink”. For the same molecule, the Color ([1]; pH 8, no iron) was “Pink”, the Color ([1]; pH 8, with iron (Ammoniacal iron citrate 0.05 g/l)) was “Purple” and the Color ([1]; pH 9, no iron) was “Purple”. The Color ([1]; pH 9, with iron (Ammoniacal iron citrate 0.05 g/l)) was “Purple”, the Color ([1]; pH 10, no iron) was “Mauve” and the Color ([1]; pH 10, with iron (Ammoniacal iron citrate 0.05 g/l)) was “Mauve”. For the same molecule, the “percentage of positive strains” value (Morganella morganii) was 0% and the “percentage of positive strains” value (Hafnia alvei) was 80%.
With `O=C1c2ccccc2C(=O)c2c1ccc(O[C@@H]1O[C@H](CO)[C@@H](O)[C@H](O)[C@H]1O)c2O` [Alizarin-2-β-D-glucoside] the Color (Citrobacter koseri 059; 18 H) was “Mauve”, the Intensity (Citrobacter koseri 059; 18 H) was 2 arbitrary units and the Color (Citrobacter koseri 059; 24 H) was “Mauve”. The Intensity (Citrobacter koseri 059; 24 H) was 3 arbitrary units, the Color (Citrobacter koseri 059; 48 H) was “Mauve” and the Intensity (Citrobacter koseri 059; 48 H) was 3.5 arbitrary units. For the same molecule, the Color ([2]; 18 H) was “Purple”, the Intensity ([2]; 18 H) was 3.5 arbitrary units and the Color ([2]; 24 H) was “Purple”. For the same molecule, the Intensity ([2]; 24 H) was 4 arbitrary units, the Color ([2]; 48 H) was “Purple” and the Intensity ([2]; 48 H) was 4 arbitrary units. The Color ([3]; Aluminum sulfate 50 mg/l, 24 H) was “red”, the Intensity ([3]; Aluminum sulfate 50 mg/l, 24 H) was 4 arbitrary units and the Color ([3]; Aluminum sulfate 50 mg/l, 48 H) was “red”. The Intensity ([3]; Aluminum sulfate 50 mg/l, 48 H) was 4 arbitrary units, the Color ([3]; Control, no metal salt, 24 H) was “purple” and the Intensity ([3]; Control, no metal salt, 24 H) was 2.3 arbitrary units. The Color ([3]; Control, no metal salt, 48 H) was “purple”, the Intensity ([3]; Control, no metal salt, 48 H) was 2.3 arbitrary units and the Color ([3]; Iron citrate 50 mg/l, 24 H) was “purple”. For the same molecule, the Intensity ([3]; Iron citrate 50 mg/l, 24 H) was 4 arbitrary units, the Color ([3]; Iron citrate 50 mg/l, 48 H) was “purple” and the Intensity ([3]; Iron citrate 50 mg/l, 48 H) was 4 arbitrary units. For the same molecule, the Color [3, 4] was “purple”, the Intensity [3, 4] was 2.3 arbitrary units and the Color [3, 5] was “purple”. The Intensity [3, 5] was 2.7 arbitrary units, the Color ([3]; Tin chloride 50 mg/l, 24 H) was “orange” and the Intensity ([3]; Tin chloride 50 mg/l, 24 H) was 3 arbitrary units. The Color ([3]; Tin chloride 50 mg/l, 48 H) was “orange”, the Intensity ([3]; Tin chloride 50 mg/l, 48 H) was 4 arbitrary units and the Color (Listeria innocua 036; Aluminum sulfate 50 mg/l, 24 H) was “red”. For the same molecule, the Intensity (Listeria innocua 036; Aluminum sulfate 50 mg/l, 24 H) was 4 arbitrary units, the Color (Listeria innocua 036; Aluminum sulfate 50 mg/l, 48 H) was “red” and the Intensity (Listeria innocua 036; Aluminum sulfate 50 mg/l, 48 H) was 4 arbitrary units. For the same molecule, the Color (Listeria innocua 036; Control, no metal salt, 24 H) was “purple”, the Intensity (Listeria innocua 036; Control, no metal salt, 24 H) was 2.3 arbitrary units and the Color (Listeria innocua 036; Control, no metal salt, 48 H) was “purple”. The Intensity (Listeria innocua 036; Control, no metal salt, 48 H) was 2.7 arbitrary units, the Color (Listeria innocua 036; Iron citrate 50 mg/l, 24 H) was “purple” and the Intensity (Listeria innocua 036; Iron citrate 50 mg/l, 24 H) was 4 arbitrary units. The Color (Listeria innocua 036; Iron citrate 50 mg/l, 48 H) was “purple”, the Intensity (Listeria innocua 036; Iron citrate 50 mg/l, 48 H) was 4 arbitrary units and the Color (Listeria innocua 036; [4]) was “purple”. The Intensity (Listeria innocua 036; [4]) was 2.3 arbitrary units, the Color (Listeria innocua 036; [5]) was “purple” and the Intensity (Listeria innocua 036; [5]) was 2.7 arbitrary units. The Color (Listeria innocua 036; Tin chloride 50 mg/l, 24 H) was “orange”, the Intensity (Listeria innocua 036; Tin chloride 50 mg/l, 24 H) was 3 arbitrary units and the Color (Listeria innocua 036; Tin chloride 50 mg/l, 48 H) was “orange”. The Intensity (Listeria innocua 036; Tin chloride 50 mg/l, 48 H) was 4 arbitrary units, the Color (Listeria grayi 078; Aluminum sulfate 50 mg/l, 24 H) was “red” and the Intensity (Listeria grayi 078; Aluminum sulfate 50 mg/l, 24 H) was 4 arbitrary units. For the same molecule, the Color (Listeria grayi 078; Aluminum sulfate 50 mg/l, 48 H) was “red”, the Intensity (Listeria grayi 078; Aluminum sulfate 50 mg/l, 48 H) was 4 arbitrary units and the Color (Listeria grayi 078; Control, no metal salt, 24 H) was “purple”. The Intensity (Listeria grayi 078; Control, no metal salt, 24 H) was 2 arbitrary units, the Color (Listeria grayi 078; Control, no metal salt, 48 H) was “purple” and the Intensity (Listeria grayi 078; Control, no metal salt, 48 H) was 2.3 arbitrary units. For the same molecule, the Color (Listeria grayi 078; Iron citrate 50 mg/l, 24 H) was “purple”, the Intensity (Listeria grayi 078; Iron citrate 50 mg/l, 24 H) was 4 arbitrary units and the Color (Listeria grayi 078; Iron citrate 50 mg/l, 48 H) was “purple”. For the same molecule, the Intensity (Listeria grayi 078; Iron citrate 50 mg/l, 48 H) was 4 arbitrary units, the Color (Listeria grayi 078; [4]) was “purple” and the Intensity (Listeria grayi 078; [4]) was 2 arbitrary units. For the same molecule, the Color (Listeria grayi 078; [5]) was “purple”, the Intensity (Listeria grayi 078; [5]) was 2 arbitrary units and the Color (Listeria grayi 078; Tin chloride 50 mg/l, 24 H) was “orange”. For the same molecule, the Intensity (Listeria grayi 078; Tin chloride 50 mg/l, 24 H) was 3 arbitrary units, the Color (Listeria grayi 078; Tin chloride 50 mg/l, 48 H) was “orange” and the Intensity (Listeria grayi 078; Tin chloride 50 mg/l, 48 H) was 4 arbitrary units. For the same molecule, the Color (Listeria seeligeri 011; Aluminum sulfate 50 mg/l, 24 H) was “red”, the Intensity (Listeria seeligeri 011; Aluminum sulfate 50 mg/l, 24 H) was 4 arbitrary units and the Color (Listeria seeligeri 011; Aluminum sulfate 50 mg/l, 48 H) was “red”. The Intensity (Listeria seeligeri 011; Aluminum sulfate 50 mg/l, 48 H) was 4 arbitrary units, the Color (Listeria seeligeri 011; Control, no metal salt, 24 H) was “purple” and the Intensity (Listeria seeligeri 011; Control, no metal salt, 24 H) was 2.3 arbitrary units. The Color (Listeria seeligeri 011; Control, no metal salt, 48 H) was “purple”, the Intensity (Listeria seeligeri 011; Control, no metal salt, 48 H) was 2.3 arbitrary units and the Color (Listeria seeligeri 011; Iron citrate 50 mg/l, 24 H) was “purple”. For the same molecule, the Intensity (Listeria seeligeri 011; Iron citrate 50 mg/l, 24 H) was 4 arbitrary units, the Color (Listeria seeligeri 011; Iron citrate 50 mg/l, 48 H) was “purple” and the Intensity (Listeria seeligeri 011; Iron citrate 50 mg/l, 48 H) was 4 arbitrary units. For the same molecule, the Color (Listeria seeligeri 011; [4]) was “purple”, the Intensity (Listeria seeligeri 011; [4]) was 2.7 arbitrary units and the Color (Listeria seeligeri 011; [5]) was “purple”. The Intensity (Listeria seeligeri 011; [5]) was 2.7 arbitrary units, the Color (Listeria seeligeri 011; Tin chloride 50 mg/l, 24 H) was “orange” and the Intensity (Listeria seeligeri 011; Tin chloride 50 mg/l, 24 H) was 3 arbitrary units. For the same molecule, the Color (Listeria seeligeri 011; Tin chloride 50 mg/l, 48 H) was “orange”, the Intensity (Listeria seeligeri 011; Tin chloride 50 mg/l, 48 H) was 4 arbitrary units and the Color observed (Listeria ivanovii 018; 4 H) was “Purple”. For the same molecule, the Color observed (Listeria ivanovii 018; 24 H) was “Purple”.
